The text below walks through data of ChEMBL document CHEMBL4616601, “Meeting organometallic chemistry with drug discovery: CH activation enabled discovery of a new ring system of 12H-Indazolo[2,1-a]cinnolin-12-ones with anti-proliferation activity” (Bioorg Med Chem Lett, 2020).

Active and inactive are the calls of the source. No rule for the calls is given here.

In test [1] the test system is PC-3. Kind of test: Antiproliferative activity against human PC3 cells assessed as inhibition of cell viability at 0.5 to 5 uM after 72 hrs by CCK8 assay. The test is classed as functional, cell-based. (Tetrazolium assays rely on reduction of a dye to a coloured formazan, in cell work by metabolically active cells.)
For test [2], the system named is PC-3. Put plainly: Antiproliferative activity against human PC3 cells assessed as reduction in cell viability after 72 hrs by CCK8 assay. The test is classed as functional, cell-based. The following applies: PC-3, 72 h.
Test [3] deals with PANC-1. Put plainly: Antiproliferative activity against human PANC1 cells assessed as reduction in cell viability after 72 hrs. The test is classed as functional, cell-based. Conditions: PANC-1, 72 h.
The test system of test [4] is PC-3. Put plainly: Antiproliferative activity against human PC3 cells at 0.5 uM assessed as inhibition of cell viability after 72 hrs by CCK-8 assay relative to control. The class given is functional. The following applies: PC-3, 72 h.

Consider `O=C1CCc2c1c1ccccc1n1c(=O)c3ccccc3n21`, for which, in test [1], the outcome was Active.

Take `CCOC(=O)c1c(C)n2c3ccccc3c(=O)n2c2ccccc12`: in test [1], the outcome was Active.

For `CCOC(=O)c1c(C)n2c3ccccc3c(=O)n2c2c(OC)cccc12`, the outcome in test [1] was Active. The values for the IC50 in test [2] and in test [3] were 216 nM and 116 nM, respectively.

As for `O=C1NCCc2c1c1ccccc1n1c(=O)c3ccccc3n21`, the outcome in test [1] was Active.

Regarding `CCOC(=O)c1c(-c2cccc(OC)c2)n2c3ccccc3c(=O)n2c2ccccc12`, the outcome in test [1] was Active.

`CCOC(=O)c1c(-c2ccc(F)cc2)n2c3ccccc3c(=O)n2c2ccccc12`: in test [1], the result was Active.

`O=C1CCCc2c1c1ccccc1n1c(=O)c3ccccc3n21`: in test [1], the outcome was Active.

On to `COC(=O)c1c(C)n2c3ccccc3c(=O)n2c2cc3ccccc3cc12`, for which the result in test [1] was Active.

Consider `CCOC(=O)c1c(-c2ccccc2)n2c3ccccc3c(=O)n2c2ccc(F)cc12`, for which the outcome in test [1] was Active.

For `CCOC(=O)c1c(-c2ccccc2)n2c3ccccc3c(=O)n2c2ccc(OC)cc12`, the result in test [1] was Active. Besides, the IC50 is 2020 nM in test [2] and 4230 nM in test [3].

In the case of `CCOC(=O)c1c(-c2ccco2)n2c3ccccc3c(=O)n2c2ccccc12`, the outcome in test [1] was Active.

Take `COC(=O)c1c(C)n2c3ccccc3c(=O)n2c2ccc(OC(F)(F)F)cc12`: the outcome in test [1] was Active.

Consider `O=C1CCCc2c1c1cc(F)ccc1n1c(=O)c3ccccc3n21`, for which the result in test [1] was Active.

On to `CCOC(=O)c1c(-c2ccccc2)n2c3ccc(OC)cc3c(=O)n2c2ccccc12`, for which the result in test [1] was Active.

On to `CCOC(=O)c1c(C)n2c3ccccc3c(=O)n2c2ccc(F)cc12`, for which the result in test [1] was Active.

On to `CCOC(=O)c1c(C)n2c3ccccc3c(=O)n2c2ccc(Br)cc12`, for which the result in test [1] was Active.

On to `CCc1c(C(=O)OC)c2ccccc2n2c(=O)c3ccccc3n12`, for which the outcome in test [1] was inactive.

Regarding `COC(=O)c1c(C)n2c3ccccc3c(=O)n2c2c(F)cccc12`, the result in test [1] was Active. The figures for the IC50 in test [2] and in test [3] were 334 nM and 528 nM, respectively.

For the compound `COc1cccc2c3c(n4c5ccccc5c(=O)n4c12)CCC3=O`, in test [1], the outcome was Active.

In the case of `COc1ccc2c(c1)c1c(n3c4ccccc4c(=O)n23)CCCC1=O`, the outcome in test [1] was Active.

With `CC(C)[C@]12O[C@H]1[C@@H]1O[C@@]13[C@@]1(C)CCC4=C(COC4=O)[C@@H]1C[C@@H]1O[C@@]13C2=O` [TRIPTONIDE], the IC50 in test [2] came to 25 nM; in test [3], 47 nM.

Turning to `O=C1CCc2c1c1cc(I)ccc1n1c(=O)c3ccccc3n21`, the outcome in test [1] was Active.

Consider `CCOC(=O)c1c(-c2ccccc2)n2c3ccccc3c(=O)n2c2ccc(Br)cc12`, for which, in test [1], the outcome was Active.

As for `CCOC(=O)c1c(C)n2c3ccccc3c(=O)n2c2cc(OC)cc(OC)c12`, the outcome in test [1] was Active.

Turning to `CCOC(=O)c1c(-c2ccccc2)n2c3ccccc3c(=O)n2c2cc(OC)cc(OC)c12`, the outcome in test [1] was Active.

Consider `CCOC(=O)c1c(-c2ccccc2)n2c3ccccc3c(=O)n2c2ccc(Cl)cc12`, for which the result in test [1] was Active. Moreover, the IC50 in test [2] and in test [3] was above 50000 nM each time.

For `CCOC(=O)c1c(-c2ccccc2)n2c3ccccc3c(=O)n2c2ccc(-c3ccccc3)cc12`, the outcome in test [1] was Active.

Take `CCOC(=O)c1c(-c2ccccc2)n2c3ccccc3c(=O)n2c2ccc(N3CCOCC3)cc12`: the outcome in test [1] was Active. The IC50 came to 7490 nM in test [2] and 13800 nM in test [3].

On to `O=C1CCc2c1c1cc(Cl)ccc1n1c(=O)c3ccccc3n21`, for which the result in test [1] was Active.

With `COc1cc(OC)c2c3c(n4c5ccccc5c(=O)n4c2c1)CCC3=O`, in test [1], the outcome was Active.

Turning to `CCOC(=O)c1c(-c2ccccc2)n2c3ccc(F)cc3c(=O)n2c2ccccc12`, the outcome in test [1] was Active.

On to `CCOC(=O)c1c(-c2ccccc2)n2c3ccccc3c(=O)n2c2ccccc12`, for which the result in test [1] was Active.

With `COC(=O)c1c(C)n2c3ccccc3c(=O)n2c2cc(OC)c(OC)c(OC)c12`, the result in test [1] was Active.

`CCOC(=O)c1c(-c2ccc(I)cc2)n2c3ccccc3c(=O)n2c2ccccc12`: the outcome in test [1] was Active. Also, the IC50 in test [2] worked out at 3980 nM; in test [3], 6820 nM.

Consider `O=C1CCc2c1c1cccc(F)c1n1c(=O)c3ccccc3n21`, for which the outcome in test [1] was Active.

As to `COP(=O)(OC)c1c(C)n2c3ccccc3c(=O)n2c2ccccc12`, the result in test [1] was inactive.

For `COC(=O)c1c(C)n2c3ccccc3c(=O)n2c2ccccc12`, the result in test [1] was Active. Further, the IC50 worked out at 1010 nM in test [2] and 551 nM in test [3].

Take `O=C1CCc2c1c1cc(Br)ccc1n1c(=O)c3ccccc3n21`: in test [1], the result was Active.

For the compound `Cc1c(C(=O)OCCO)c2ccccc2n2c(=O)c3ccccc3n12`, in test [1], the outcome was inactive.

For the compound `CCOC(=O)c1c(C)n2c3ccc(OC)cc3c(=O)n2c2ccccc12`, the result in test [1] was Active. Also, the IC50 in test [2] amounted to 475 nM; in test [3], 506 nM.

In the case of `CCOC(=O)c1c(-c2ccc(C)cc2)n2c3ccccc3c(=O)n2c2ccccc12`, the outcome in test [1] was Active.

For the compound `CCOC(=O)c1c(-c2ccccc2)n2c3ccccc3c(=O)n2c2ccc3c(c12)OCO3`, the outcome in test [1] was Active. In addition, the inhibition at 0.5 µM in test [4] stood at 39.5%. The figures for the IC50 in test [2] and in test [3] were 5820 nM and above 50000 nM, respectively.

Regarding `CCOC(=O)c1c(C)n2c3ccccc3c(=O)n2c2ccc(Cl)cc12`, the outcome in test [1] was Active.

As for `COC(=O)c1c(C2CC2)n2c3ccccc3c(=O)n2c2ccccc12`, the result in test [1] was inactive.

In the case of `CCOC(=O)c1c(-c2ccccc2)n2c3ccccc3c(=O)n2c2ccc(C)cc12`, the result in test [1] was Active.

`CCOC(=O)c1c(-c2ccccc2)n2c3ccccc3c(=O)n2c2ccc(I)cc12`: the outcome in test [1] was Active.

In the case of `CCOC(=O)c1c(C)n2c3ccccc3c(=O)n2c2ccc(OC)cc12`, the result in test [1] was Active.

With `CCOC(=O)c1c(-c2ccc(OC)cc2)n2c3ccccc3c(=O)n2c2ccccc12`, the result in test [1] was Active.

Regarding `CCOC(=O)c1c(C)n2c3ccccc3c(=O)n2c2ccc(I)cc12`, the result in test [1] was Active.

Take `COc1cc2c(c(OC)c1OC)c1c(n3c4ccccc4c(=O)n23)CCC1=O`: in test [1], the outcome was Active.

On to `CCc1ccc2c(c1)c(C(=O)OC)c(C)n1c3ccccc3c(=O)n21`, for which, in test [1], the outcome was Active.

Turning to `O=C1CCc2c1c1c3c(ccc1n1c(=O)c4ccccc4n21)OCO3`, the result in test [1] was Active.

Take `COc1ccc2c(c1)c1c(n3c4ccccc4c(=O)n23)CCC1=O`: the outcome in test [1] was Active.

Take `O=C(OCCO)c1c(-c2ccccc2)n2c3ccccc3c(=O)n2c2ccccc12`: the outcome in test [1] was inactive.

With `CCOC(=O)c1c(C)n2c3ccccc3c(=O)n2c2ccc(C)cc12`, the result in test [1] was Active.

As for `CCOC(=O)c1c(-c2ccccc2)n2c3ccccc3c(=O)n2c2ccc(C#N)cc12`, in test [1], the result was Active.

In general, IC50 refers to the concentration that inhibits the measured activity by half. In general, inhibition refers to the change of the read-out against control, counted positive when it falls.
